# Laboratory results: patent publication US20090191173A1, “Induction Of Neurogenesis And Stem Cell Therapy In Combination With Copolymer 1” (priority 2004, published 2009)
# System: aNPCs
# Assay: Neuronal differentiation of aNPCs with CD4+ T cells, T cell-conditioned medium or cytokines
# Type: cell-based, mouse
# Settings: 5 days in culture with cytokine, concentrations as low as 1 ng/ml
# Method: (xvii) Co-culturing of neural progenitor cells and T cells. CD4+ T cells were purified from lymph nodes of 8-week-old C57B16/J mice as previously described (Kipnis et al., 2004). T cells were activated in RPMI medium supplemented with L-glutamine (2 mM), 2-mercaptoethanol (5×10^−5 M), sodium pyruvate (1 mM), penicillin (100 IU/ml), streptomycin (100 μg/ml), nonessential amino acids (1 ml/100 ml), and autologous serum 2% (v/v) in the presence of mouse recombinant IL-2 (mrIL-2; 5 ng/ml) and soluble anti-CD28 and anti-CD3. antibodies (1 ng/ml). T cells were co-cultured (5×10^4 cells/well) with aNPCs (5×10^4 cells/well) for 5 d on cover slips coated with Matrigel (BD Biosciences) in 24-well plates. The cultures were then fixed with 2.5% paraformaldehyde in PBS for 30 min at room temperature and stained for neuronal markers.
# We therefore sought to determine whether direct interaction between aNPCs and T cells would also result in an altered pattern of aNPC differentiation. To address this question, we activated CD4+ T cells in vitro by a cognate protocol (with anti-CD3 antibodies, anti-CD28 antibodies, and IL-2) for 24 h and then allowed their activation to continue in co-cultures with aNPCs in a transwell culture system. […] After 5 days in culture the aNPCs in the lower chamber were fixed and analyzed for the appearance of newly formed neurons. […]
substance,measurement,value
IFN-γ: recombinant interferon-γ,β-III-tubulin expression in aNPCs,could induce an increase in β-III-tubulin expression
